Experimental data taken from publication PMC9927415, “Tyrosine Kinase Inhibitors Display Potent Activity against Cryptosporidium parvum” (Microbiology Spectrum, 2022).

What was measured:
[1] = Host cell cytotoxicity assay (CellTiter-Glo); conditions: human, HepG2 cells
Protocol: HepG2 cells were grown in Eagle’s Minimum Essential Medium (MEM) containing 10% FBS, 1% nonessential amino acids (NEAA) and 1% penicillin/streptomycin to >50% confluence prior to harvesting. Cells were suspended in media and 3000 cells per well were added onto 384-well clear bottom plates. Prior to addition of the cell suspension, the screening compounds (250 nl) were predispensed into plates using a liquid handler. Plates were incubated for 48 h at 37°C, 5% CO2. After 48 h of incubation, plates were equilibrated at room temperature for 30 min before luminescence signal was measured using CellTiter-Glo Reagent. Plates were kept at room temperature for 10 min to stabilize the signal and then read using a ViewLux luminescence reader. The HepG2 CC50 (from the host cell cytotoxicity assays) and C. parvum mean EC50 (from parasite growth inhibition assays) values were used to calculate selectivity index.

[2] = biological target: T1, PHKG2 (Homo sapiens, UniProt P15735); test: KINOMEscan competitive binding; conditions: n=1, read-out: Percent inhibition, PHKG2
T1 construct: purchased DiscoverX (KINOMEscan)
T1 sequence (P15735 1-406): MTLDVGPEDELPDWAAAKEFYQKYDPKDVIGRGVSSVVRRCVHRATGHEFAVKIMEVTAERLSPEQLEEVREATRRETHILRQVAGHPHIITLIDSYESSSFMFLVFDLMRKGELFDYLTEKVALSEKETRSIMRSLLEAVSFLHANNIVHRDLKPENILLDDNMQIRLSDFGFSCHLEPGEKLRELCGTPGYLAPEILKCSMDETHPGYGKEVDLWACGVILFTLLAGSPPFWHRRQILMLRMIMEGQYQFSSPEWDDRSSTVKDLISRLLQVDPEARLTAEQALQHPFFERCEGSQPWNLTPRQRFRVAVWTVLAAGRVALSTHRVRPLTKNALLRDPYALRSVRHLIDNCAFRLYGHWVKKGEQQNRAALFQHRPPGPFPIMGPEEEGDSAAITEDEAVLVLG

[3] = biological target: T2, PRKG2 (Homo sapiens, UniProt Q13237); test: KINOMEscan competitive binding; conditions: n=1, read-out: Percent inhibition, PRKG2
T2 construct: purchased DiscoverX (KINOMEscan)
T2 sequence (Q13237 1-762): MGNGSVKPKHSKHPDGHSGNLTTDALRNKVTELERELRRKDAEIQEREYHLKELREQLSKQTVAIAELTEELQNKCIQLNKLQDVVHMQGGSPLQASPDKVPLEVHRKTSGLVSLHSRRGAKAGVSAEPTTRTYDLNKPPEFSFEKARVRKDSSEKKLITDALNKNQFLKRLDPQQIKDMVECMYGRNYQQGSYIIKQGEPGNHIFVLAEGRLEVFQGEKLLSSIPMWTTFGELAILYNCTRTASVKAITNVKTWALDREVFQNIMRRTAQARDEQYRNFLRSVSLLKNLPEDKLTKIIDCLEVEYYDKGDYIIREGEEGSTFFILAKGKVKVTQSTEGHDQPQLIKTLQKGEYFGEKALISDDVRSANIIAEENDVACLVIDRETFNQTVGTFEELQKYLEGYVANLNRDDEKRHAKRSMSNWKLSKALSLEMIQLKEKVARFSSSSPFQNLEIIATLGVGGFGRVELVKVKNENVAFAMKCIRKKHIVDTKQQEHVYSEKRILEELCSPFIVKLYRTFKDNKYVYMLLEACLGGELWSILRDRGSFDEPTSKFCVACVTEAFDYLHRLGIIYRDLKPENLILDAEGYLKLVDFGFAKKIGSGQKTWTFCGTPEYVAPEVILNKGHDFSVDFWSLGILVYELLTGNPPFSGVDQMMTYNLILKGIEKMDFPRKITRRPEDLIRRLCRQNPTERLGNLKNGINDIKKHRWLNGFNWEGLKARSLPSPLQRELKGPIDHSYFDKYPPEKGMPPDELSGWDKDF

[4] = biological target: T3, RPS6KA4(Kin.Dom.1) (Homo sapiens, UniProt O75676); test: KINOMEscan competitive binding; conditions: n=1, read-out: Percent inhibition, RPS6KA4(Kin.Dom.1)
T3 construct: RPS6KA4(Kin.Dom.1); purchased DiscoverX (KINOMEscan)
T3 sequence (O75676 1-371 limits assumed): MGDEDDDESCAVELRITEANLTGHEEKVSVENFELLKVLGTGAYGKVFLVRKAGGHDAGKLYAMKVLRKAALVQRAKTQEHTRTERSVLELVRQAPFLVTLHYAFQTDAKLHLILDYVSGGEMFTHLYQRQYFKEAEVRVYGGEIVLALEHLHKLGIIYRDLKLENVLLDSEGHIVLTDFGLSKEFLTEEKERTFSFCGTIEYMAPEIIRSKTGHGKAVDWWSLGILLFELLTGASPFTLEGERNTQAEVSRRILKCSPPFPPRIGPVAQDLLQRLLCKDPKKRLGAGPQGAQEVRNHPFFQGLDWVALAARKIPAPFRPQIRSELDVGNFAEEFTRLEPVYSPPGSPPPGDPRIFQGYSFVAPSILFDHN

[5] = biological target: T4, STK33 (Homo sapiens, UniProt Q9BYT3); test: KINOMEscan competitive binding; conditions: n=1, read-out: Percent inhibition, STK33
T4 construct: purchased DiscoverX (KINOMEscan)
T4 sequence (Q9BYT3 whole entry): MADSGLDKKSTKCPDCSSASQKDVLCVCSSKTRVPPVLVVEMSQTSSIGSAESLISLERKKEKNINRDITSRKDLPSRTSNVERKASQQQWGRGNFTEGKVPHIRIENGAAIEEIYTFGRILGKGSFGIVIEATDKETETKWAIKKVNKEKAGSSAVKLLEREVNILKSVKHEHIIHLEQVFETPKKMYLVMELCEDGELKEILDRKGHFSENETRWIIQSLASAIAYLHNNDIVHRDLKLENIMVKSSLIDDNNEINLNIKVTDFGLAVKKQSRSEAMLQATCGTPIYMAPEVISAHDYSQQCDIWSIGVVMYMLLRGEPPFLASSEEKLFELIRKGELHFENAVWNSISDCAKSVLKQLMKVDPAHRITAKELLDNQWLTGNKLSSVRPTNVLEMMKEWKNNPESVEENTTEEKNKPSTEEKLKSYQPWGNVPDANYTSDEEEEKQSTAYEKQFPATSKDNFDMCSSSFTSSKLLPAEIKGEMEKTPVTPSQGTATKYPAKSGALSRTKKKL

[6] = biological target: T5, TGFBR1 (Homo sapiens, UniProt P36897); test: KINOMEscan competitive binding; conditions: n=1, read-out: Percent inhibition, TGFBR1
T5 construct: purchased DiscoverX (KINOMEscan)
T5 sequence (P36897 34-503): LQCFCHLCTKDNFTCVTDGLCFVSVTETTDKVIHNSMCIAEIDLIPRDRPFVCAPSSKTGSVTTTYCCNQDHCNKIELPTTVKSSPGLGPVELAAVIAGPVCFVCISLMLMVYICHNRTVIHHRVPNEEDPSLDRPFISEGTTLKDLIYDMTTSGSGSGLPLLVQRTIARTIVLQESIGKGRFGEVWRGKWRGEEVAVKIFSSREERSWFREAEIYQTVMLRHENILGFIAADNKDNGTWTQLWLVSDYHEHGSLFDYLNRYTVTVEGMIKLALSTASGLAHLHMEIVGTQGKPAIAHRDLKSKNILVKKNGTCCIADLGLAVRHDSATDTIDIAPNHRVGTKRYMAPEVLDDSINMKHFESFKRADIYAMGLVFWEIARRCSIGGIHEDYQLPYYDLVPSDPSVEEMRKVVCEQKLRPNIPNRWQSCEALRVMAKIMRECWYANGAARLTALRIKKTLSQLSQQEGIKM

[7] = biological target: T6, TIE2 (Homo sapiens, UniProt Q02763); test: KINOMEscan competitive binding; conditions: n=1, read-out: Percent inhibition, TIE2
T6 construct: purchased DiscoverX (KINOMEscan)
T6 sequence (Q02763 23-1124): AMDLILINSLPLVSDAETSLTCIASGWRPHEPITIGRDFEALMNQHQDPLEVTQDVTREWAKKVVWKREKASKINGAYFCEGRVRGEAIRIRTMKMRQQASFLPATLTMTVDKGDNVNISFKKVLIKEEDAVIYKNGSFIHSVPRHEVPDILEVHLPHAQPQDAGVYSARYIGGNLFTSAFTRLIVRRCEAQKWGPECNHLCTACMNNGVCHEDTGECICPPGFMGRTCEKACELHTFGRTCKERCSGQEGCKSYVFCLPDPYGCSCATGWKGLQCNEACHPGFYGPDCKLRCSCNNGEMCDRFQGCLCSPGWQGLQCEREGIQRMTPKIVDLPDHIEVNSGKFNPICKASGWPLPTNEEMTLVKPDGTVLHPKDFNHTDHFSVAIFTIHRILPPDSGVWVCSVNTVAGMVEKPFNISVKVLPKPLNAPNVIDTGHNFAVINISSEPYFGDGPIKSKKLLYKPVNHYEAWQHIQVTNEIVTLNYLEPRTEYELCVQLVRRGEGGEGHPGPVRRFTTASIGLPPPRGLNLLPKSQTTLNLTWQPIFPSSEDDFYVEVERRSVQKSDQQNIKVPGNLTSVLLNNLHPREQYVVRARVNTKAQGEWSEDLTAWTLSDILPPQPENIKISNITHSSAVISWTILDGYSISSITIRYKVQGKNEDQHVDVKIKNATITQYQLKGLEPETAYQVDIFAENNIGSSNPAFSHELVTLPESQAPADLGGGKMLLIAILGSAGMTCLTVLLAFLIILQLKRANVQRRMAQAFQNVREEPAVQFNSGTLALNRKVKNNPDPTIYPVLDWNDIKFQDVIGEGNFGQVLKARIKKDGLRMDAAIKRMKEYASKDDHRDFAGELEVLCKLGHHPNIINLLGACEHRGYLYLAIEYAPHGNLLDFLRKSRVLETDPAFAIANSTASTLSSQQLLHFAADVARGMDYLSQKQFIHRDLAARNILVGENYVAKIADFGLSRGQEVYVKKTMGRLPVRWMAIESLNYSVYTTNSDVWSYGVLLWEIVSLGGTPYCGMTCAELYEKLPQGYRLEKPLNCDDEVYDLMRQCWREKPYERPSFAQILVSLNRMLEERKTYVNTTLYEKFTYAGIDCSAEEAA

[8] = biological target: T7, TNK2 (Homo sapiens, UniProt Q07912); test: KINOMEscan competitive binding; conditions: n=1, read-out: Percent inhibition, TNK2
T7 construct: purchased DiscoverX (KINOMEscan)
T7 sequence (Q07912 whole entry): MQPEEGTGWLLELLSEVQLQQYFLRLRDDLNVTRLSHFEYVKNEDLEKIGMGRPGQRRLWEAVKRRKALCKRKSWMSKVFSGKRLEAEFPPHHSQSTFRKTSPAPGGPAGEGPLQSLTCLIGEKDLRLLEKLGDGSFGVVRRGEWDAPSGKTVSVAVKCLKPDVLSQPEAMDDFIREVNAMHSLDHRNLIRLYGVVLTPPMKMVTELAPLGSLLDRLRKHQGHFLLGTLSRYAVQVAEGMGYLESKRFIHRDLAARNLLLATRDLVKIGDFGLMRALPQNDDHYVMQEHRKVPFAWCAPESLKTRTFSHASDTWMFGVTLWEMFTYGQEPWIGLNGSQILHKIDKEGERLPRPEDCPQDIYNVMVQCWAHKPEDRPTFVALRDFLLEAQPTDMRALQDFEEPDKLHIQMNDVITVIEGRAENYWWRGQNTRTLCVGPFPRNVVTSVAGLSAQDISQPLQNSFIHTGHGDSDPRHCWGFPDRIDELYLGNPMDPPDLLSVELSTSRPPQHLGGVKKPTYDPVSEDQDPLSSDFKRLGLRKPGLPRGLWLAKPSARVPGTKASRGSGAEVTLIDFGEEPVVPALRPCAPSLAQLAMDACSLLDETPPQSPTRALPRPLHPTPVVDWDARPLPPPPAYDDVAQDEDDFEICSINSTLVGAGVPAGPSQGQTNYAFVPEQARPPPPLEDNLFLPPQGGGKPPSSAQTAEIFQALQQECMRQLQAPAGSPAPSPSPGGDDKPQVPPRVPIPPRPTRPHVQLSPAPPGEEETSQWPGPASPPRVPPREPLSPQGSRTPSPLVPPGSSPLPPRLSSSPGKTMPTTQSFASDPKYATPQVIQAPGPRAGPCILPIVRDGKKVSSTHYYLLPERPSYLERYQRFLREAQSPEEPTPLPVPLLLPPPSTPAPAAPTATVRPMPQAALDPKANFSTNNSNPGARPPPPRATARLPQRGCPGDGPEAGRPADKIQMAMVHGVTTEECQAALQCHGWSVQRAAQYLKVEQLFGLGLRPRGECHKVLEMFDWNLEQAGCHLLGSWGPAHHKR

[9] = biological target: T8, TRKB (Homo sapiens, UniProt Q16620); test: KINOMEscan competitive binding; conditions: n=1, read-out: Percent inhibition, TRKB
T8 construct: purchased DiscoverX (KINOMEscan)
T8 sequence (Q16620 32-822): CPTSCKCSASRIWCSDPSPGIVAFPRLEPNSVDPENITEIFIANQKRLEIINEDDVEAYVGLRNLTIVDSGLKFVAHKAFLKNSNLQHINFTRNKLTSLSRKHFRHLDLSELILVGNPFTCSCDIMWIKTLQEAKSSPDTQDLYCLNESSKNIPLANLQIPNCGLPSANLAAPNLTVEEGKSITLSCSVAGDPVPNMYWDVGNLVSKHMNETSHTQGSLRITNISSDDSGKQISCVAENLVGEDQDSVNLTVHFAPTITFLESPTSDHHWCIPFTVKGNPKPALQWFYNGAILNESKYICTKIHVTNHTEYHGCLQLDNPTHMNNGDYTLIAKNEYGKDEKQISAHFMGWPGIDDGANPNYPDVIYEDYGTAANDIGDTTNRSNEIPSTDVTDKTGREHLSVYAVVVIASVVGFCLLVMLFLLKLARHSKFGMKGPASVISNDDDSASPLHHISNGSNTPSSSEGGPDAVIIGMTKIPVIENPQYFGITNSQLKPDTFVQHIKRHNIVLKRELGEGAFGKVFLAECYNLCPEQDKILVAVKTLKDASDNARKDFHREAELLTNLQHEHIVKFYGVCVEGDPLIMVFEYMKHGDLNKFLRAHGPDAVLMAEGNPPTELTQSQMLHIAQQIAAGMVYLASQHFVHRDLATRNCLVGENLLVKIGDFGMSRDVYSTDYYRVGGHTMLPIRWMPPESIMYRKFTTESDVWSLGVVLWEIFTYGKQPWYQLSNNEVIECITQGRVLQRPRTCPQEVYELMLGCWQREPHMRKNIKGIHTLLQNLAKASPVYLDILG

| Compound | CC50 at 48 h [1] [µM] | inhibition at 10 µM [2] [%] | inhibition at 10 µM [3] [%] | inhibition at 10 µM [4] [%] | inhibition at 10 µM [5] [%] | inhibition at 10 µM [6] [%] | inhibition at 10 µM [7] [%] | inhibition at 10 µM [8] [%] | inhibition at 10 µM [9] [%] |
| --- | --- | --- | --- | --- | --- | --- | --- | --- | --- |
| Cc1ccc(O)cc1Nc1ccnc(Nc2cccc(C(N)=O)c2)n1 [Compound 3] | 33.1 | 0 | 0 | 0 | 89.1 | 100 | 97.5 | 98.8 | 0 |
| Cc1ccc(O)cc1N(C)c1ccnc(Nc2cccc(S(N)(=O)=O)c2)n1 [Compound 4] |  | 0 | 0 | 0 | 85.7 | 100 | 100 | 99.8 | 91.7 |
| CN1CCN(c2ccc(Nc3nccc(-c4cnn5ncccc45)n3)cc2C#N)CC1 [Compound 1] | > 100 | 100 | 0 | 0 | 98.1 | 78.8 | 0 | 73.2 | 96.5 |
| Clc1ccc(Nc2ncc(-c3ccccc3)s2)cc1 [Compound 10] |  | 0 | 0 | 0 | 0 | 0 | 0 | 0 | 0 |
| Nc1ncc2c(-c3ccncc3)c[nH]c2n1 [Compound 11] | 50.1 | 0 | 0 | 0 | 0 | 0 | 0 | 0 | 0 |
| Fc1cccc(COc2ccc(Nc3ncnc4c3CN(CCN3CCOCC3)CC4)cc2Cl)c1 [Compound 6] | 46.7 | 0 | 0 | 0 | 0 | 0 | 0 | 0 | 0 |
| COc1ccc(Nc2nccc(-c3cnn4ncccc34)n2)cc1 [Compound 2] | > 100 | 97.1 | 0 | 0 | 68.9 | 0 | 0 | 78.1 | 0 |
| C[C@@H](Oc1cc(-c2cnc3ccccn23)sc1C(N)=O)c1ccccc1Cl [Compound 8] |  | 74.6 | 0 | 0 | 0 | 0 | 0 | 0 | 0 |
| COc1cc(Nc2nccc(-c3sc(N)nc3-c3cccc(NC(=O)c4c(F)cccc4F)c3)n2)cc(OC)c1OC [Compound 7] | 2.6 | 0 | 0 | 98.9 | 0 | 72.9 | 100 | 100 | 0 |
| c1ccc(COc2cccc(-c3ccnc4[nH]ccc34)c2)cc1 [Compound 9] |  | 0 | 0 | 0 | 0 | 0 | 0 | 0 | 0 |
